Data reported in US20240018145A1, “[…]-DEPENDENT EN[…] TREATING OR […]” (priority 2020, published 2024).

What follows are molecules tested on FLU A (PR/8/34) (assay: Flu A Neuraminidase Antiviral Assay). Details: not given.
Assay type: cell-based

| Compound | EC50 [nM] |
| --- | --- |
| CN1C(=O)c2c(O)c(=O)ccn2N2C1CCCC2(C)c1ncc(F)cc1F (single isomer, unassigned) [Compound 46A, 1-(3,5-difluoropyridin-2-yl)-7-hydroxy-1,5-dimethyl-1,2,3,4,4a,5-hexahydrodipyrido[1,2-b:2′,1′-f][1,2,4]triazine-6,8-dione] | 40.3 |
| CN1C(=O)c2c(O)c(=O)ccn2N2C(c3ccccc3)C(O)CCC12 (stereo not drawn) [Compound 135B, 2,7-dihydroxy-5-methyl-1-phenyl-1,2,3,4,4a,5-hexahydrodipyrido[1,2-b:2′,1′-f][1,2,4]triazine-6,8-dione] | > 8100 |
| CC1(c2ccccc2)CCCC2N(CC3CC(F)(F)C3)C(=O)c3c(O)c(=O)ccn3N21 (single isomer, unassigned) [Compound 45B, 5-((3,3-difluorocyclobutyl)methyl)-7-hydroxy-1-methyl-1-phenyl-1,2,3,4,4a,5-hexahydrodipyrido[1,2-b:2′,1′-f][1,2,4]triazine-6,8-dione] | 10.6 |
| CN1C(=O)c2c(O)c(=O)ccn2N2C(c3ccccc3)C(CC(F)F)CCC12 (single isomer, unassigned) [Compound 129B, 2-(2,2-difluoroethyl)-7-hydroxy-5-methyl-1-phenyl-1,2,3,4,4a,5-hexahydrodipyrido[1,2-b:2′,1′-f][1,2,4]triazine-6,8-dione] | 196 |
| Cc1ccccc1C1C(CC(F)(F)F)CCC2(C)N(C)C(=O)c3c(O)c(=O)ccn3N12 (single isomer, unassigned) [Compound 87B, 7-hydroxy-4a,5-dimethyl-1-(o-tolyl)-2-(2,2,2-trifluoroethyl)-1,2,3,4,4a,5-hexahydrodipyrido[1,2-b:2′,1′-f][1,2,4]triazine-6,8-dione] | 3.6 |
| Cc1ccccc1C1N2C(CCC13CCC(F)(F)CC3)N(C)C(=O)c1c(O)c(=O)ccn12 (single isomer, unassigned) [Compound 70B, 4,4-difluoro-7′-hydroxy-5′-methyl-1′-(o-tolyl)-3′,4′,4a′,5′-tetrahydro-1′H-spiro[cyclohexane-1,2′dipyrido[1,2-b:2′,1′-f][1,2,4]triazine]-6′,8′-dione] | 2 |
| CN1C(=O)c2c(O)c(=O)ccn2N2C1CCC1(CCC(C(F)(F)F)CC1)C2c1ccccc1 (single isomer, unassigned) [Compound 73D, 7′-hydroxy-5′-methyl-1′-phenyl-4-(trifluoromethyl)-3′,4′,4a′,5′-tetrahydro-1′H-spiro[cyclohexane-1,2′-dipyrido[1,2-b:2′,1′-f][1,2,4]triazine]-6′,8′-dione] | 6.6 |
| CN1C(=O)c2c(O)c(=O)ccn2N2C1CCCC2(C)c1ccccc1Cl (single isomer, unassigned) [Compound 20B, 1-(2-chlorophenyl)-7-hydroxy-1,5-dimethyl-1,2,3,4,4a,5-hexahydrodipyrido[1,2-b:2′,1′-f][1,2,4]triazine-6,8-dione] | 4.6 |
| CN1C(=O)c2c(O)c(=O)ccn2N2C(c3cc(F)ccc3C(F)(F)F)CCCC12 (single isomer, unassigned) [Compound 13B, 1-(5-fluoro-2-(trifluoromethyl)phenyl)-7-hydroxy-5-methyl-1,2,3,4,4a,5-hexahydro-dipyrido[1,2-b:2′,1′-f][1,2,4]triazine-6,8-dione] | 783 |
| Cc1cc(=O)c(O)c2n1N1C(c3ccccc3)C(CC(F)(F)F)CCC1N(C)C2=O (single isomer, unassigned) [Compound 132A, 7-hydroxy-5,10-dimethyl-1-phenyl-2-(2,2,2-trifluoroethyl)-1,2,3,4,4a,5-hexahydrodipyrido[1,2-b:2′,1′-f][1,2,4]triazine-6,8-dione] | > 810 |
| CN1C(=O)c2c(O)c(=O)ccn2N2C(c3ccccc3)C3CCC(C3)C12 (single isomer, unassigned) [Compound 9A, 4-hydroxy-6-methyl-11-phenyl-6a,7,8,9,10,11-hexahydro-3H-7,10-methanopyrido[1′,2′:1,6][1,2,4]triazino[2,3-a]azepine-3,5(6H)-dione] | 6210 |
| CN1C(=O)c2c(O)c(=O)ccn2N2C(c3ccc(F)cc3)C(CC(F)(F)F)CCC12 (single isomer, unassigned) [Compound 122A, 1-(4-fluorophenyl)-7-hydroxy-5-methyl-2-(2,2,2-trifluoroethyl)-1,2,3,4,4a,5-hexahydrodipyrido[1,2-b:2′,1′-f][1,2,4]triazine-6,8-dione] | 343 |
| Cc1ccccc1C1C(CC(F)(C(F)(F)F)C(F)(F)F)CCC2N(C)C(=O)c3c(O)c(=O)ccn3N12 (single isomer, unassigned) [Compound 81B, 7-hydroxy-5-methyl-2-(2,3,3,3-tetrafluoro-2-(trifluoromethyl)propyl)-1-(o-tolyl)-1,2,3,4,4a,5-hexahydrodipyrido[1,2-b:2′,1′-f][1,2,4]triazine-6,8-dione] | 744 |
| CCN1C(=O)c2c(O)c(=O)ccn2N2C(c3ccccc3C)C(CC(F)(F)F)CCC12 (single isomer, unassigned) [Compound 93B, 5-ethyl-7-hydroxy-1-(o-tolyl)-2-(2,2,2-trifluoroethyl)-1,2,3,4,4a,5-hexahydrodipyrido[1,2-b:2′,1′-f][1,2,4]triazine-6,8-dione] | 2.9 |
| CN1C(=O)c2c(O)c(=O)ccn2N2C(c3ccccc3)C(c3ccc(F)c(F)c3F)CCC12 (single isomer, unassigned) [Compound 85C, 7-hydroxy-5-methyl-1-phenyl-2-(2,3,4-trifluorophenyl)-1,2,3,4,4a,5-hexahydrodipyrido[1,2-b:2′,1′-f][1,2,4]triazine-6,8-dione] | > 810 |
| CC1(c2cc(C(F)(F)F)ccn2)CCCC2N(CC3(C(F)(F)F)CC3)C(=O)c3c(O)c(=O)ccn3N21 (single isomer, unassigned) [Compound 52B, 7-hydroxy-1-methyl-5-((1-(trifluoromethyl)cyclopropyl)methyl)-1-(4-(trifluoromethyl)pyridin-2-yl)-1,2,3,4,4a,5-hexahydrodipyrido[1,2-b:2′,1′-f][1,2,4]triazine-6,8-dione] | > 2700 |
| CCN1C(=O)c2c(O)c(=O)ccn2N2C(c3ccccc3F)C(CCC(F)F)CCC12 (single isomer, unassigned) [Compound 101A, 2-(3,3-difluoropropyl)-5-ethyl-1-(2-fluorophenyl)-7-hydroxy-1,2,3,4,4a,5-hexahydrodipyrido[1,2-b:2′,1′-f][1,2,4]triazine-6,8-dione] | 148 |
| Cc1ccc(C2(C)CCCC3N(CC(F)(F)F)C(=O)c4c(O)c(=O)ccn4N32)nc1 (single isomer, unassigned) [Compound 49B, 7-hydroxy-1-methyl-1-(5-methylpyridin-2-yl)-5-(2,2,2-trifluoroethyl)-1,2,3,4,4a,5-hexahydrodipyrido[1,2-b:2′,1′-f][1,2,4]triazine-6,8-dione] | 26.5 |
| CC1(c2ccccn2)CCCC2N(CC(F)(F)F)C(=O)c3c(O)c(=O)ccn3N21 (single isomer, unassigned) [Compound 39B, 7-hydroxy-1-methyl-1-(pyridin-2-yl)-5-(2,2,2-trifluoroethyl)-1,2,3,4,4a,5-hexahydrodipyrido[1,2-b:2′,1′-f][1,2,4]triazine-6,8-dione] | 10.1 |
| CN1C(=O)c2c(O)c(=O)ccn2N2C1CCC1(CCC(C(F)(F)F)CC1)C2c1ccccc1 (single isomer, unassigned) [Compound 73C, 7′-hydroxy-5′-methyl-1′-phenyl-4-(trifluoromethyl)-3′,4′,4a′,5′-tetrahydro-1′H-spiro[cyclohexane-1,2′-dipyrido[1,2-b:2′,1′-f][1,2,4]triazine]-6′,8′-dione] | 105 |
| Cc1ccccc1C1C(CCC(F)(F)F)CCC2N(C)C(=O)c3c(O)c(=O)ccn3N12 (single isomer, unassigned) [Compound 95A, 7-hydroxy-5-methyl-1-(o-tolyl)-2-(3,3,3-trifluoropropyl)-1,2,3,4,4a,5-hexahydrodipyrido[1,2-b:2′,1′-f][1,2,4]triazine-6,8-dione] | 137 |
| CN1C(=O)c2c(O)c(=O)ccn2N2C(c3ccccc3Cl)C(CCO)CCC12 (stereo not drawn) [Compound 66B, 1-(2-chlorophenyl)-7-hydroxy-2-(2-hydroxyethyl)-5-methyl-1,2,3,4,4a,5-hexahydrodipyrido[1,2-b:2′,1′-f][1,2,4]triazine-6,8-dione] | 182 |
| CC1(c2ncc(F)cc2F)CCCC2N(CC(F)F)C(=O)c3c(O)c(=O)ccn3N21 (single isomer, unassigned) [Compound 47A, 5-(2,2-difluoroethyl)-1-(3,5-difluoropyridin-2-yl)-7-hydroxy-1-methyl-1,2,3,4,4a,5-hexahydrodipyrido[1,2-b:2′,1′-f][1,2,4]triazine-6,8-dione] | 25.7 |
| CCN1C(=O)c2c(O)c(=O)ccn2N2C(c3ccccc3Br)C(CC(F)(F)F)CCC12 (single isomer, unassigned) [Compound 106B, 1-(2-bromophenyl)-5-ethyl-7-hydroxy-2-(2,2,2-trifluoroethyl)-1,2,3,4,4a,5-hexahydrodipyrido[1,2-b:2′,1′-f][1,2,4]triazine-6,8-dione] | 87.8 |
| Cc1ccnc(C2(C)CCCC3N(CC(F)(F)F)C(=O)c4c(O)c(=O)ccn4N32)c1 (single isomer, unassigned) [Compound 50B, 7-hydroxy-1-methyl-1-(4-methylpyridin-2-yl)-5-(2,2,2-trifluoroethyl)-1,2,3,4,4a,5-hexahydrodipyrido[1,2-b:2′,1′-f][1,2,4]triazine-6,8-dione] | 9 |

Same assay, conditions: MDCK, 48 h

| Compound | EC50 [nM] |
| --- | --- |
| CN1C(=O)c2c(O)c(=O)ccn2N2[C@H](c3ccccc3)[C@@H](OCCCCC#N)CC[C@@H]12 [Compound 154, 5-(((1R,2S,4aS)-7-hydroxy-5-methyl-6,8-dioxo-1-phenyl-1,2,3,4,4a,5,6,8-octahydrodipyrido[1,2-b:2′,1′-f][1,2,4]triazin-2-yl)oxy)pentanenitrile] | > 810 |
| CN1C(=O)c2c(O)c(=O)ccn2N2[C@H](c3ccccc3)[C@@H](n3cc(CO)nn3)CC[C@@H]12 [Compound 141, (1R,2S,4aS)-7-hydroxy-2-(4-(hydroxymethyl)-1H-1,2,3-triazol-1-yl)-5-methyl-1-phenyl-1,2,3,4,4a,5-hexahydrodipyrido[1,2-b:2′,1′-f][1,2,4]triazine-6,8-dione] | > 8100 |
